The values below come from ChEMBL document CHEMBL2010683, “Discovery of the first small molecule inhibitor of human DDX3 specifically designed to target the RNA binding site: towards the next generation HIV-1 inhibitors” (Bioorg Med Chem Lett, 2012).

Structures are written as SMILES.

The target in data set [1] is T1, ATP-dependent RNA helicase DDX1 (Homo sapiens, UniProt Q92499).
T1 sequence (Q92499 whole entry): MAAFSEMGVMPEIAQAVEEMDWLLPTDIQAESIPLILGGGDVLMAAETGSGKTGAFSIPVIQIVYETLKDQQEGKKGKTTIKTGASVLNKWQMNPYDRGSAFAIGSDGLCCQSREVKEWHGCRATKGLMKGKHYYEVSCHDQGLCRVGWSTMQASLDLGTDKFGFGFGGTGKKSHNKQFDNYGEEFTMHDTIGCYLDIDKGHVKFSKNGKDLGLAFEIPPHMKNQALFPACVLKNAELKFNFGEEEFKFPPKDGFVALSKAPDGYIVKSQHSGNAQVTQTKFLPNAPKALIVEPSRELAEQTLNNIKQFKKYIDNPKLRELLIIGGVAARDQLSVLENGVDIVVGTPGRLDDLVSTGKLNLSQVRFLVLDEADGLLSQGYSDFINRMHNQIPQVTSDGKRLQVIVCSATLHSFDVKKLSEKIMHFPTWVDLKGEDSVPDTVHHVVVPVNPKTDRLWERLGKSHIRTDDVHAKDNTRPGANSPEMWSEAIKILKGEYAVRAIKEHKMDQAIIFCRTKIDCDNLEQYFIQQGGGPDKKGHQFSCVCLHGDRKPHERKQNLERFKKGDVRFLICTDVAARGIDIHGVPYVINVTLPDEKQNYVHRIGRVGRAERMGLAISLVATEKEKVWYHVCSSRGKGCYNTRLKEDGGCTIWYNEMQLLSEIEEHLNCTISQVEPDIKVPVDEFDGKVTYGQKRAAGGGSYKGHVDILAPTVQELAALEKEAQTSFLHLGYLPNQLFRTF
As to the kind of experiment: Inhibition of human recombinant DDX1 helicase activity expressed in Escherichia coli assessed as conversion of a 6-FAM-labeled double stranded RNA in to single stranded nucleic acid by laser scanning densitometric analysis.

The nature of data set [2]: Inhibition of Hepatitis C virus NS3 helicase expressed in Escherichia coli assessed as conversion of a 6-FAM-labeled double stranded RNA in to single stranded nucleic acid by laser scanning densitometric analysis. Also noted: species or system Hepacivirus hominis.
Data set [3] addresses T2, ATP-dependent RNA helicase DDX3X (Homo sapiens, UniProt O00571). As to the kind of experiment: Inhibition of human recombinant DDX3 ATPase activity expressed in Escherichia coli assessed as [gamma-32P] ATP hydrolysis after 5 mins by densitometric analysis.
Target sequence in this assay (O00571 whole entry): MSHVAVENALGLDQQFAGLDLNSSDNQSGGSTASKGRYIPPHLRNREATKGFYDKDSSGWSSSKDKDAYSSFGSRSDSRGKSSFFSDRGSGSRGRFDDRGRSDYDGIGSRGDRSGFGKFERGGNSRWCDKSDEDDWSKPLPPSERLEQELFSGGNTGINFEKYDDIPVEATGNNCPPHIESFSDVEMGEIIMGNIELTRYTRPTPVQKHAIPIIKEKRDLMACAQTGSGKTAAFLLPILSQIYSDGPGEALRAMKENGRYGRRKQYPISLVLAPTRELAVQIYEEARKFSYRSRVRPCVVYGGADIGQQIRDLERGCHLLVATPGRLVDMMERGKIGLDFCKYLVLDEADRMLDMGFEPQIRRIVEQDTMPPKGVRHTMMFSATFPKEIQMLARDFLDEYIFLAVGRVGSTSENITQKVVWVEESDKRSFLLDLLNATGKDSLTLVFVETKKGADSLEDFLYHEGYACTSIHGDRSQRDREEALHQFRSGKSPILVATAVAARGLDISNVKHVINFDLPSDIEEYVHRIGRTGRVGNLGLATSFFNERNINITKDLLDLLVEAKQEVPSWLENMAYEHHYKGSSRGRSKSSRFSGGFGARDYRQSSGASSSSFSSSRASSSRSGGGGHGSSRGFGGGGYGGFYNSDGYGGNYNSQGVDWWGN
Data set [4] is described as follows: Cytotoxicity against human PBMC cells assessed as cell viability after 72 hrs by MTS assay. The format is cell-based. A general note: Tetrazolium dyes change colour on reduction, which living cells bring about.
Data set [5] has as its system Human immunodeficiency virus 1. As to the kind of experiment: Antiviral activity against multidrug-resistant HIV1 infected in phytohemagglutininin-P stimulated human PBMC cells assessed as inhibition of viral replication after 72 hrs post infection. Format: functional, organism-based. Conditions: Human immunodeficiency virus 1, PBMC.
Data set [6] can be described thus: Selectivity ratio of CC50 for human PBMC cells to EC50 for multidrug-resistant HIV1 infected in phytohemagglutininin-P-stimulated human PBMC cells. Format: ADME, cell-based. Conditions: read-out: Ratio CC50/EC50.
Data set [7] has as its target T2, ATP-dependent RNA helicase DDX3X.
Target sequence in this assay (O00571 2-662 limits assumed): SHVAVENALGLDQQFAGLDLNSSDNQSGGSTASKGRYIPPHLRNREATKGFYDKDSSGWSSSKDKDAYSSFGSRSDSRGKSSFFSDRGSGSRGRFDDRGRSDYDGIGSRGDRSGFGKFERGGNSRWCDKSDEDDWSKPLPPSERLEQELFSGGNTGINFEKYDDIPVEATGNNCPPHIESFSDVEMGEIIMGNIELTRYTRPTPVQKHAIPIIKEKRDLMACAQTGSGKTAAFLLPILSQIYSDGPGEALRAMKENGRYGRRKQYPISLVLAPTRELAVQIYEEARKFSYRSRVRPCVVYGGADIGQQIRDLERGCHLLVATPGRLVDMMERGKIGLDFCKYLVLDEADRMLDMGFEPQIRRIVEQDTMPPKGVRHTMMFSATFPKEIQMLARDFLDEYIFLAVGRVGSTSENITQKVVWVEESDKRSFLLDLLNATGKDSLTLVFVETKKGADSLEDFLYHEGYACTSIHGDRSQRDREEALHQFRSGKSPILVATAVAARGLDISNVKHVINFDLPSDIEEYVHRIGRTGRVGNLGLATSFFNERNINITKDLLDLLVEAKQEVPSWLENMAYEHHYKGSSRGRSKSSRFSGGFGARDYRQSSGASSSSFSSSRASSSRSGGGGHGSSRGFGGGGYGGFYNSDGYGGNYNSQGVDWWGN
Description: Competitive inhibition of human recombinant DDX3 expressed in Escherichia coli using 50 nM double strand 18/36mer RNA substrate by PAGE analysis
Data set [8] shares this target. This is another data set of the same source.
Target sequence in this assay (O00571 2-662 limits assumed): as above
Description: Competitive inhibition of human recombinant DDX3 expressed in Escherichia coli using 25 nM double strand 18/36mer RNA substrate by PAGE analysis
For data set [9] the target is unchanged. The source holds these as a separate data set.
Target sequence in this assay (O00571 2-662 limits assumed): as above
Description: Competitive inhibition of human recombinant DDX3 expressed in Escherichia coli using 100 nM double strand 18/36mer RNA substrate by PAGE analysis
The target is the same in data set [10]. As to the kind of experiment: Inhibition of human recombinant DDX3 helicase activity expressed in Escherichia coli assessed as conversion of a 6-FAM-labeled double stranded RNA in to single stranded nucleic acid by laser scanning densitometric analysis.
Target sequence in this assay (O00571 whole entry): as the sequence (O00571 whole entry) above

Consider `O=C(Nc1cccc([N+](=O)[O-])c1)Nc1cccc([N+](=O)[O-])c1`, for which the IC50 in [1] is > 500 µM; in data set [2] it was > 500 µM; in data set [3], > 1000 µM.
As for `Cc1ccccc1NC(=O)Nc1cccc([N+](=O)[O-])c1`, the IC50 in data set [1] was > 500 µM; in data set [2], > 500 µM; in data set [3] it was 20 µM. Also, in [4], the CC50 at 72 h is 100 µM. The EC50 in [5] worked out at 10 µM. In addition, in data set [6], the selectivity ratio worked out at 10.
Take `Nc1cccc(NC(=O)Nc2cccc(N)c2)c1`: the figures for the IC50 in [1], in data set [2] and in data set [3] were > 500 µM, > 500 µM and > 1000 µM, respectively.
As for `Cc1ccccc1NC(=O)Nc1cccc(N)c1`, the ID50 in [7] amounted to 435 µM; in data set [8], 4.5 µM; in data set [9] it was 950 µM. The IC50 in [1] is > 500 µM; in [2] it was > 500 µM; in [3] it was 40 µM; in data set [10] it was 5 µM. Besides, the CC50 at 72 h in data set [4] was determined as 100 µM. Further, the EC50 in [5] amounted to 15 µM. The selectivity ratio in [6] stood at 10.
In the case of `Cc1[nH]c2ccccc2c1C1=CC(c2ccccc2)=NN=C(c2ccccc2)C1`, the IC50 in [1] was > 500 µM; in data set [2] it was > 500 µM; in [3], > 1000 µM; in [10], 6 µM.
For `O=C(Nc1ccc(-c2nc3ccccc3[nH]2)cc1)c1cc2ccccc2o1`, the IC50 in data set [1] was > 500 µM; in data set [2] it was > 500 µM; in [3], > 1000 µM; in data set [10], 42 µM.
Take `Cc1ccccc1NC(=O)Nc1cccc(NC(=O)Nc2ccccc2C)c1`: the 50% inhibitory concentration (IC50) in data set [1] was > 500 µM; in data set [2], > 500 µM; in data set [3] it was 17 µM; in [10], 65 µM.

For orientation: IC50 means the concentration that gives 50% inhibition. One may read the CC50 as the concentration giving 50% cytotoxicity. For orientation: EC50 means the concentration giving half of the maximal effect.
